What follows are molecules tested against STING (Homo sapiens, UniProt Q86WV6, G230A/H232R/R293Q/R71H) (assay: STING reporter assay in THP1-Dual KO-IFNAR2 cells (2′3′cGAMP stimulation, luciferase reporter)). Conditions: 15 μM 2′3′cGAMP stimulation, 24 h, read-out: Pharmaron, THP1_IFNAR2 STING 24 h Luci Normalized: GeoMean EC50.
Format: cell-based
In short: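 EC50 from secreted luciferase (QUANTI-Luc Plus luminescence of supernatant) after 24 h at 37 °C, 5% CO2. Cells: THP1-Dual KO-IFNAR2, treated with compound (0.0017-100 μM final) plus lipofected 2′3′cGAMP at 15 μM final.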

Chain of STING (Q86WV6 whole entry R71H/G230A/H232R/R293Q): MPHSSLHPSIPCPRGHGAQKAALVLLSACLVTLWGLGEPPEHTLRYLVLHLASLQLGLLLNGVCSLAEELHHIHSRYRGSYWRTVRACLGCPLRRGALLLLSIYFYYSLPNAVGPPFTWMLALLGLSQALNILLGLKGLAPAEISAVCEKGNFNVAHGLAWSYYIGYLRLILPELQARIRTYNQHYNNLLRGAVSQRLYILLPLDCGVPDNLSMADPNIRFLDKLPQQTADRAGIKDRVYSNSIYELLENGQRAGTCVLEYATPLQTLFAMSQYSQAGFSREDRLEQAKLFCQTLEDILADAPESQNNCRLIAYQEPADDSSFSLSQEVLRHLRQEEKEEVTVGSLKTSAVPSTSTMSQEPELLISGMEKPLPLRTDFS

EC50 [nM]	SMILES
200 to 1000	CC1(C(=O)Nc2c[nH]c3ccc(OCC[C@@H]4C[C@@H]5CN(CC(F)(F)F)C[C@@H]5C4)cc23)CCC1 [Compound 369, 1-methyl-N-(5-(2-((3aR,5r,6aS)-2-(2,2,2-trifluoroethyl)octahydrocyclopenta[c]pyrrol-5-yl)ethoxy)-1H-indol-3-yl)cyclobutane-1-carboxamide]
200 to 1000	N#CC1(C(=O)Nc2c[nH]c3ccc(OCC[C@@H]4C[C@@H]5CN(CC(F)(F)F)C[C@@H]5C4)cc23)CC1 [Compound 370, 1-cyano-N-(5-(2-((3aR,5r,6aS)-2-(2,2,2-trifluoroethyl)octahydrocyclopenta[c]pyrrol-5-yl)ethoxy)-1H-indol-3-yl)cyclopropane-1-carboxamide]
1000 to 5000	CC1(C(=O)Nc2c[nH]c3ccc(OCCc4ccc(C(F)(F)F)nc4)cc23)COC1 [Compound 372, 3-methyl-N-(5-(2-(6-(trifluoromethyl)pyridin-3-yl)ethoxy)-1H-indol-3-yl)oxetane-3-carboxamide]
1000 to 5000	O=C(Nc1c[nH]c2ccc(OCCc3ccc(C(F)(F)F)nc3)cc12)C1COC1 [Compound 373, N-(5-(2-(6-(trifluoromethyl)pyridin-3-yl)ethoxy)-1H-indol-3-yl)oxetane-3-carboxamide]
1000 to 5000	CC(=O)Nc1c[nH]c2cc(F)c(CCOc3ccc(C(F)(F)F)cc3)c(F)c12 [Compound 375, N-(4,6-difluoro-5-(2-(4-(trifluoromethyl)phenoxy)ethyl)-1H-indol-3-yl)acetamide]
5000 to 100000	CC(=O)Nc1c[nH]c2ccc(CCOC3CN(CC(F)(F)F)C3)cc12 [Compound 377, N-(5-(2-((1-(2,2,2-trifluoroethyl)azetidin-3-yl)oxy)ethyl)-1H-indol-3-yl)acetamide]
200 to 1000	CC1(C(=O)Nc2c[nH]c3ccc(OCC[C@@H]4C[C@@H]5CN(CC(F)(F)F)C[C@@H]5C4)cc23)CC1 [Compound 379, 1-methyl-N-(5-(2-((3aR,5r,6aS)-2-(2,2,2-trifluoroethyl)octahydrocyclopenta[c]pyrrol-5-yl)ethoxy)-1H-indol-3-yl)cyclopropane-1-carboxamide]
40 to 200	CC1(F)CC(C(=O)Nc2c[nH]c3ccc(OCCc4ccc(C(F)(F)F)cc4)cc23)C1 (centres unmarked) [Compound 380, 3-fluoro-3-methyl-N-(5-(4-(trifluoromethyl)phenethoxy)-1H-indol-3-yl)cyclobutane-1-carboxamide]
200 to 1000	O=C(Nc1c[nH]c2ccc(OCc3ccc(C(F)(F)F)cc3)cc12)C1COC1 [Compound 381, N-(5-((4-(trifluoromethyl)benzyl)oxy)-1H-indol-3-yl)oxetane-3-carboxamide]
200 to 1000	O=C(Nc1c[nH]c2ccc(OCC[C@@H]3C[C@@H]4CN(CC(F)(F)F)C[C@@H]4C3)cc12)C1COC1 [Compound 383, N-(5-(2-((3aR,5r,6aS)-2-(2,2,2-trifluoroethyl)octahydrocyclopenta[c]pyrrol-5-yl)ethoxy)-1H-indol-3-yl)oxetane-3-carboxamide]
200 to 1000	O=C(Nc1c[nH]c2ccc(CCCn3cc(C(F)(F)F)cn3)cc12)C1CC1 [Compound 384, N-(5-(3-(4-(trifluoromethyl)-1H-pyrazol-1-yl)propyl)-1H-indol-3-yl)cyclopropanecarboxamide]
5000 to 100000	CC(=O)Nc1c[nH]c2ccc(OCCc3cnn(C(F)F)c3)cc12 [Compound 385, N-(5-(2-(1-(difluoromethyl)-1H-pyrazol-4-yl)ethoxy)-1H-indol-3-yl)acetamide]
1000 to 5000	CC(=O)Nc1c[nH]c2ccc(CCOc3ccc4c(c3)N(Cc3ccccc3)C(=O)CS4)cc12 [Compound 386, N-(5-(2-((4-benzyl-3-oxo-3,4-dihydro-2H-benzo[b][1,4]thiazin-6-yl)oxy)ethyl)-1H-indol-3-yl)acetamide]
200 to 1000	O=C(Nc1c[nH]c2ccc(CCOc3ccc(C(F)(F)F)cc3)cc12)C1(C(F)(F)F)CC1 [Compound 387, 1-(trifluoromethyl)-N-(5-(2-(4-(trifluoromethyl)phenoxy)ethyl)-1H-indol-3-yl)cyclopropane-1-carboxamide]
200 to 1000	O=C(Nc1c[nH]c2ccc(CCOc3ccc(C(F)(F)F)cc3)cc12)C1CC(F)(F)C1 [Compound 388, 3,3-difluoro-N-(5-(2-(4-(trifluoromethyl)phenoxy)ethyl)-1H-indol-3-yl)cyclobutane-1-carboxamide]
200 to 1000	CC(C)(C)C(=O)Nc1c[nH]c2ccc(CCOc3ccc(C(F)(F)F)cc3)cc12 [Compound 389, N-(5-(2-(4-(trifluoromethyl)phenoxy)ethyl)-1H-indol-3-yl)pivalamide]

EC50 [nM]	SMILES
200 to 1000	N#CC1CCC1C(=O)Nc1c[nH]c2ccc(CCOc3ccc(C(F)(F)F)cc3)cc12 (centres unmarked) [Compound 390, 2-cyano-N-(5-(2-(4-(trifluoromethyl)phenoxy)ethyl)-1H-indol-3-yl)cyclobutane-1-carboxamide]
40 to 200	N#C[C@H]1C[C@@H]1C(=O)Nc1c[nH]c2ccc(CCOc3ccc(C(F)(F)F)cc3)cc12 [Compound 391, (1S,2S)-2-cyano-N-(5-(2-(4-(trifluoromethyl)phenoxy)ethyl)-1H-indol-3-yl)cyclopropane-1-carboxamide]
200 to 1000	C[C@H]1C[C@H](C(=O)Nc2c[nH]c3ccc(CCOc4ccc(C(F)(F)F)cc4)cc23)C1 [Compound 392, trans-3-methyl-N-(5-(2-(4-(trifluoromethyl)phenoxy)ethyl)-1H-indol-3-yl)cyclobutane-1-carboxamide]
200 to 1000	C[C@H]1C[C@@H](C(=O)Nc2c[nH]c3ccc(CCOc4ccc(C(F)(F)F)cc4)cc23)C1 [Compound 393, cis-3-methyl-N-(5-(2-(4-(trifluoromethyl)phenoxy)ethyl)-1H-indol-3-yl)cyclobutane-1-carboxamide]
40 to 200	C[C@H]1C[C@@H]1C(=O)Nc1c[nH]c2ccc(CCOc3ccc(C(F)(F)F)cc3)cc12 [Compound 394, (1S,2S)-2-methyl-N-(5-(2-(4-(trifluoromethyl)phenoxy)ethyl)-1H-indol-3-yl)cyclopropane-1-carboxamide]
200 to 1000	CC1(F)CC(C(=O)Nc2c[nH]c3ccc(CCOc4ccc(C(F)(F)F)cc4)cc23)C1 (centres unmarked) [Compound 395, 3-fluoro-3-methyl-N-(5-(2-(4-(trifluoromethyl)phenoxy)ethyl)-1H-indol-3-yl)cyclobutane-1-carboxamide]
200 to 1000	CC1(C(=O)Nc2c[nH]c3ccc(CCOc4ccc(C(F)(F)F)cc4)cc23)CCCO1 (centres unmarked) [Compound 396, 2-methyl-N-(5-(2-(4-(trifluoromethyl)phenoxy)ethyl)-1H-indol-3-yl)tetrahydrofuran-2-carboxamide]
200 to 1000	CC1(C)CC1C(=O)Nc1c[nH]c2ccc(CCOc3ccc(C(F)(F)F)cc3)cc12 (centres unmarked) [Compound 397, 2,2-dimethyl-N-(5-(2-(4-(trifluoromethyl)phenoxy)ethyl)-1H-indol-3-yl)cyclopropane-1-carboxamide]
200 to 1000	N#CC1(C(=O)Nc2c[nH]c3ccc(CCOc4ccc(C(F)(F)F)cc4)cc23)CC1 [Compound 398, 1-cyano-N-(5-(2-(4-(trifluoromethyl)phenoxy)ethyl)-1H-indol-3-yl)cyclopropane-1-carboxamide]
200 to 1000	CC1(C(=O)Nc2c[nH]c3ccc(CCOc4ccc(C(F)(F)F)cc4)cc23)CC1 [Compound 399, 1-methyl-N-(5-(2-(4-(trifluoromethyl)phenoxy)ethyl)-1H-indol-3-yl)cyclopropane-1-carboxamide]
200 to 1000	O=C(Nc1c[nH]c2ccc(CCOc3ccc(C(F)(F)F)cc3)cc12)C1(F)CC1 [Compound 400, 1-fluoro-N-(5-(2-(4-(trifluoromethyl)phenoxy)ethyl)-1H-indol-3-yl)cyclopropane-1-carboxamide]
200 to 1000	O=C(Nc1c[nH]c2ccc(CCOc3ccc(C(F)(F)F)cc3)cc12)C1CCOCC1 [Compound 401, N-(5-(2-(4-(trifluoromethyl)phenoxy)ethyl)-1H-indol-3-yl)tetrahydro-2H-pyran-4-carboxamide]
5000 to 100000	CC(=O)Nc1c(Br)[nH]c2ccc(OCCc3ccc(C(F)(F)F)cc3)cc12 [Compound 402, N-(2-bromo-5-(4-(trifluoromethyl)phenethoxy)-1H-indol-3-yl)acetamide]
1000 to 5000	COCCOCC(=O)Nc1c[nH]c2ccc(OCc3ccc(C(F)(F)F)cc3)cc12 [Compound 404, 2-(2-methoxyethoxy)-N-(5-((4-(trifluoromethyl)benzyl)oxy)-1H-indol-3-yl)acetamide]
200 to 1000	COCCOCC(=O)Nc1c[nH]c2ccc(CCOc3ccc(C(F)(F)F)cc3)cc12 [Compound 406, 2-(2-methoxyethoxy)-N-(5-(2-(4-(trifluoromethyl)phenoxy)ethyl)-1H-indol-3-yl)acetamide]
200 to 1000	COCCOCC(=O)Nc1c[nH]c2ccc(OCCc3ccc(C(F)(F)F)cc3)cc12 [Compound 407, 2-(2-methoxyethoxy)-N-(5-(4-(trifluoromethyl)phenethoxy)-1H-indol-3-yl)acetamide]

SMILES	EC50 [nM]
CC1(C(=O)Nc2c[nH]c3ccc(OC4CC(c5ccc(C(F)(F)F)nc5)C4)cc23)CC1 (centres unmarked) [Compound 376, 1-methyl-N-(5-(3-(6-(trifluoromethyl)pyridin-3-yl)cyclobutoxy)-1H-indol-3-yl)cyclopropane-1-carboxamide]	200 to 1000
CC1(C(=O)Nc2c[nH]c3ccc(O[C@H]4C[C@@H](c5ccc(C(F)(F)F)cc5)C4)cc23)COC1 [Compound 378, 3-methyl-N-(5-(cis-3-(4-(trifluoromethyl)phenyl)cyclobutoxy)-1H-indol-3-yl)oxetane-3-carboxamide]	200 to 1000
COCCOCC(=O)Nc1c[nH]c2ccc(O[C@H]3C[C@@H](c4ccc(C(F)(F)F)cc4)C3)cc12 [Compound 405, 2-(2-methoxyethoxy)-N-(5-(cis-3-(4-(trifluoromethyl)phenyl)cyclobutoxy)-1H-indol-3-yl)acetamide]	200 to 1000
